Data reported in PubChem BioAssay (NCI).
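These data come from cells grown in 96-well plates and exposed to compound for 48 hours at five concentrations. GI50 marks 50% less growth. TGI is the concentration that stops growth completely.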

Legend:
Assay in all cases: growth of human tumour cells (NCI), 48 h
SK-MEL-2 melanoma = test system: SK-MEL-2 melanoma
T-47D breast = test system: T-47D breast
786-0 renal = test system: 786-0 renal
HOP-92 NSCLC = test system: HOP-92 NSCLC
M14 melanoma = test system: M14 melanoma
NCI-H23 lung = test system: NCI-H23 lung
COLO 205 colon = test system: COLO 205 colon
K-562 leukemia = test system: K-562 leukemia
HL-60(TB) leukemia = test system: HL-60(TB) leukemia
NCI/ADR-RES ovarian = test system: NCI/ADR-RES ovarian

SMILES | GI50 (SK-MEL-2 melanoma) | TGI (SK-MEL-2 melanoma) | GI50 (T-47D breast) | TGI (T-47D breast) | GI50 (786-0 renal) | TGI (786-0 renal) | GI50 (HOP-92 NSCLC) | TGI (HOP-92 NSCLC) | GI50 (M14 melanoma) | TGI (M14 melanoma) | GI50 (NCI-H23 lung) | TGI (NCI-H23 lung) | GI50 (COLO 205 colon) | TGI (COLO 205 colon) | GI50 (K-562 leukemia) | TGI (K-562 leukemia) | GI50 (HL-60(TB) leukemia) | TGI (HL-60(TB) leukemia) | GI50 (NCI/ADR-RES ovarian) | TGI (NCI/ADR-RES ovarian)
CN1CC[C@@H](c2c(O)cc(O)c3c(=O)cc(-c4ccccc4Cl)oc23)[C@@H]1CO | 0.228 µM | 0.594 µM | 0.245 µM | 1.1 µM | 0.339 µM | > 10 µM | 0.19 µM | 0.701 µM | 0.331 µM | 1.26 µM | 0.288 µM | 3.03 µM | 0.262 µM | 0.785 µM | 0.297 µM | > 2.58 µM | 0.313 µM | 1.99 µM | 1.57 µM | > 10 µM
C=C1C(=O)OC2/C=C(/C)C(OC(C)=O)CC(O)/C(C)=C\C(OC(=O)/C(C)=C\C)C12 (stereo not drawn) |  | > 100 µM |  | > 100 µM |  | 35.4 µM |  | > 100 µM |  | > 100 µM |  | > 100 µM |  | > 100 µM |  | > 100 µM |  | 60.7 µM |  | > 100 µM
COc1ccc(C(=O)c2cc3c(N)c(C(=O)Nc4cccc5ccccc45)sc3nc2C)cc1 | > 50 µM | > 50 µM | 0.355 µM | > 50 µM | 0.305 µM | > 50 µM | 0.181 µM | > 13.5 µM | 0.166 µM | > 50 µM | 0.334 µM | > 50 µM | 0.209 µM | > 13.3 µM | 0.163 µM | > 50 µM | 0.15 µM | 0.503 µM | 0.181 µM | > 50 µM
N#Cc1c(-c2ccc(Cl)cc2)c2c(n(C3OC(CO)C(O)C(O)C3O)c1=S)CCC2 (stereo not drawn) |  | > 100 µM |  | 45.8 µM |  | > 100 µM |  | 60.7 µM |  | 47.2 µM |  | 70.6 µM |  | 63.8 µM |  | 38.5 µM |  | > 100 µM |  | > 100 µM
Nc1[nH]nc2nc(-c3cccs3)cc(C(F)(F)F)c12 | > 22.3 µM | > 25 µM | > 25 µM | > 25 µM | > 25 µM | > 25 µM | > 14.1 µM | > 25 µM | > 25 µM | > 25 µM | > 25 µM | > 25 µM | > 25 µM | > 25 µM | > 25 µM | > 25 µM | > 25 µM | > 25 µM | > 25 µM | > 25 µM
COc1c(Cl)cc(NC(=S)C#N)cc1Cl |  | 86.2 µM |  | 90.6 µM |  | 88.2 µM |  | 48.8 µM |  | 64.4 µM |  | 44.6 µM |  | 32.2 µM |  | > 100 µM |  | > 100 µM |  | 54.4 µM
CC1=C(CO)C(=O)O[C@@H]([C@@H](C)[C@H]2CC[C@H]3[C@@H]4C[C@@H](O)[C@@]5(O)CC=CC(=O)[C@]5(C)[C@H]4CC[C@]23C)C1 |  | > 100 µM |  | > 100 µM |  | 90.8 µM |  | > 100 µM |  | > 100 µM |  | 49.4 µM |  | > 100 µM |  | > 100 µM |  | > 100 µM |  | 64.2 µM
NC(=O)c1c(NC(=O)c2ccc3c(c2)OCO3)sc2c1CCC(=O)C2 |  |  | 0.592 µM | 3.81 µM | 2.19 µM | > 100 µM | 1.65 µM | 5.91 µM | 0.59 µM | > 100 µM | 1.32 µM | 5.64 µM | 2.49 µM | 7.42 µM | 0.356 µM | > 100 µM | 0.554 µM | 8.28 µM | 2.2 µM | > 100 µM
COc1cc(/C=C2\Sc3scc(-c4cccc([N+](=O)[O-])c4)[n+]3C2=O)cc(OC)c1OC |  | 39.8 µM |  | 25 µM |  | 22.2 µM |  | 73.9 µM |  | 23.9 µM |  | 33.2 µM |  | 15.1 µM |  | > 100 µM |  | 82.1 µM |  | > 100 µM
CC(C)(O)CC(=O)NCCn1ccc2ncnc(Nc3ccc(Oc4cccc(C(F)(F)F)c4)c(Cl)c3)c21 | 8.66 µM | > 10 µM | 0.641 µM | > 10 µM | 4.01 µM | > 10 µM | 1.63 µM | > 10 µM | 4.17 µM | > 10 µM | 3.76 µM | > 10 µM | 3.5 µM | > 10 µM | 4.54 µM | > 10 µM | 2.88 µM | > 10 µM | 2.58 µM | > 10 µM
C=C1C(=O)OC2C1C(OC(=O)/C(C)=C/C)CC(O)(CCl)C1C(O)C3OC3(C)C21O (stereo not drawn) |  | > 50 µM |  | > 50 µM |  | 39 µM |  | > 50 µM |  | > 50 µM |  | > 50 µM |  | 41.9 µM |  | > 50 µM |  | 23.2 µM |  | > 50 µM
COc1ccc2c(c1)C(=O)c1c-2c(N(C)C)nc2ccccc12 | > 100 µM | > 100 µM | > 100 µM | > 100 µM | > 100 µM | > 100 µM | 72.6 µM | > 100 µM | > 100 µM | > 100 µM | > 100 µM | > 100 µM | > 100 µM | > 100 µM | > 100 µM | > 100 µM | > 100 µM | > 100 µM | > 100 µM | > 100 µM
COc1ccc(/C=C2\CCCC3=C2NC(N)=NC3c2ccc(OC)c(OC)c2)cc1OC (stereo not drawn) | 9.59 µM | 81.9 µM | 6.61 µM | > 60.5 µM | 14.2 µM | > 100 µM | 2.61 µM | 17.1 µM | 6.25 µM | > 73.2 µM | 7.33 µM | > 100 µM | 4.8 µM | > 100 µM | 6.17 µM | > 100 µM | 4.52 µM | > 100 µM | 1.93 µM | > 100 µM
CCc1ccc(NC(=O)COC(=O)c2cc([N+](=O)[O-])ccc2Sc2nnnn2C)cc1 | 23.3 µM | > 100 µM | 18.5 µM | 82.4 µM | 21.1 µM | 72.9 µM | 22.8 µM | 82.7 µM | 3.16 µM | 26 µM | 9.79 µM | 34.6 µM | 16 µM | 33.8 µM | 9.4 µM | 50.6 µM | 18.8 µM | 49.7 µM | 5.66 µM | 47.2 µM
O=C(COc1ccc(/C=C2\Oc3ccccc3C2=O)cc1)Nc1nc2c(s1)CCCC2 | 4.87 µM | 50.2 µM | 48.4 µM | > 100 µM | 0.818 µM | 31.7 µM | 0.212 µM | 2.53 µM | 16.1 µM | > 100 µM | 11.9 µM | > 100 µM | > 73.2 µM | > 100 µM | 18.8 µM | > 100 µM | 0.424 µM | 1.31 µM | 2.19 µM | > 59.1 µM
